Results: patent US20040235083A1, “Screening method” (priority 2001, published 2004)

Tests used:
[1] = tested on: osteoblasts; experiment: Alkaline phosphatase induction in the test using osteoblasts; type: cell-based; details: concentration of 1 μM
[2] = target: T1, NQO2 (Mus musculus, UniProt Q9JI75); experiment: Effect of compound on NQO2 activity (reduction of methyl red by GST-NQO2 fusion protein, absorbance at 436 nm); type: biochemical; details: 1 μM compound; 10 nM fusion protein, 30 μM methyl red, 25° C., pH 7.4; read-out: inhibitory action on NQO2 activity
T1 construct: made in house; host or cells: E. coli DH5α carrying pGEX-4T-2 with the insert
T1 sequence (Q9JI75 1-231): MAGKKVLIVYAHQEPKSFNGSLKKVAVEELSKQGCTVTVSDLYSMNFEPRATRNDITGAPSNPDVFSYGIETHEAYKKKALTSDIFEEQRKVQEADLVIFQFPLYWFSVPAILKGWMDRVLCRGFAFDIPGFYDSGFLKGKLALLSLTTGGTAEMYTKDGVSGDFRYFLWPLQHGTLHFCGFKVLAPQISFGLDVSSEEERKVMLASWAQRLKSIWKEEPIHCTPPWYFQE
Experimental: Entire RNA was prepared from a mouse osteoblastic cell line, MC3T3-E1, and cDNA was synthesized by using the oligo-dT primer. PCR was performed by using the cDNA as a template and two synthetic DNAs having the nucleotide sequences of SEQ ID NO: 5 and SEQ ID NO: 6, respectively, as primers to add the sequences recognized-by restriction enzymes. The resulting DNA fragment was cleaved with restriction enzymes BamHI and SalI and inserted into the BamHI-SalI cleavage site of plasmid pGEX-4T-2 (Amersham Pharmacia Biotech). The nucleotide sequence was confirmed, and then E. coli DH5α (GIBCO BRL) carrying the plasmid was cultured in an LB medium. According to the protocol recommended by Amersham Pharmacia Biotech, expression was induced by IPTG, and then purification was performed by using Glutathione-Sepharose (Amersham Pharmacia Biotech). From 2 L of the LB medium, 3.0 mg of the fusion protein was obtained.
Compound A having an osteogenesis-promoting action was examined for effects on the NQO2 activity by using the fusion protein obtained in the above (1). […] The decrease in absorbance at 436 nm was monitored to detect the reduction of methyl red. […]

[3] = tested on: osteoblastic cell line MC3T3-E1; experiment: Alkaline phosphatase activity in MC3T3-E1 after introduction of antisense or sense DNA to NQO2 mRNA; type: cell-based, mouse; details: MC3T3-E1, S-oligo DNA with FuGene 6, four days incubation, corrected for protein
Experimental: The alkaline phosphatase activity is represented by a relative activity (%) by taking a control value (with no DNA) as 100.
The mouse osteoblastic cell line, MC3T3-E1, in a MEMα medium containing 10% fetal calf serum and 100 μg/ml of kanamycin was inoculated on a 48-well plate at 1.4×10^4 cells per well and cultured overnight. To 100 μl of a serum-free αMEM were added 3 μl of FuGene 6 (Roche), 1.5 μg of the S-oligo DNA having the sequence of SEQ ID NO: 7 (antisense sequence to mouse NQO2 mRNA) and 1.5 μg of the S-oligo DNA having the sequence of SEQ ID NO: 8 (sense sequence to the mRNA) and the mixture was allowed to stand at room temperature for 15 minutes. To each well was added 22 μl of the mixture and incubated under 5% CO2 at 37° C. overnight. Thereafter, ascorbic acid was added at a final concentration of 50 μg/ml, and 10 mM of β-glycerophosphate was added. Incubation was performed for four days, and the activity of the alkaline phosphatase was measured according to Notoya et al. (Journal of Bone and Mineral Research 9: 395-400, 1994). The concentration of the protein in each cell homogenate was measured, and the activity values were corrected and shown in FIG. 1 by taking the activity obtained by the same procedure without addition of the DNA as 100%.

| alkaline phosphatase-inducing action [1] | inhibition at 1 µM [2] | Compound | alkaline phosphatase activity relative to cells without introduction of DNA (100%) [3] |
| --- | --- | --- | --- |
| alkaline phosphatase-inducing action | 38% | O=C1NC(=O)C(Cc2ccc(NC(=O)C3=CC(=O)C4C(O)=CC=CC4O3)cc2)S1 (stereo not shown) [Compound A] |  |
|  |  | antisense DNA: S-oligo DNA having the sequence of SEQ ID NO: 7 (antisense sequence to mouse NQO2 mRNA) (antisense CTGCCATGTTGGAGGAGATA; DNA, all phosphorothioate, methylation of C not given here) | significantly higher |
|  |  | sense sequence DNA: S-oligo DNA having the sequence of SEQ ID NO: 8 (sense sequence to the mRNA) (sense TATCTCCTCCAACATGGCAG; DNA, all phosphorothioate, methylation of C not given here) [reference compound] | no difference was observed |
